Data from PMC4774911, “Biochemical Screening of Five Protein Kinases from Plasmodium falciparum against 14,000 Cell-Active Compounds” (PLoS ONE, 2016).
“And” between values parts separate entries of the source, which are not always exact repeats. Equal entries are not always repeated.

Assays:
Assay in all cases: biochemical
BUB1 = BUB1 (Homo sapiens, UniProt O43683)
CAMK2G = CAMK2G (Homo sapiens, UniProt Q13555)
CDC2 = CDC2 (Homo sapiens, UniProt P06493)
CRKRS = CRKRS (Homo sapiens, UniProt Q9NYV4)
CSNK2A1 = CSNK2A1 (Homo sapiens, UniProt P68400)
GSK3B = GSK3B (Homo sapiens, UniProt P49841)
MAPK8 = MAPK8 (Homo sapiens, UniProt P45983)
PIM2 = PIM2 (Homo sapiens, UniProt Q9P1W9)
PIP4K2A = molecular target: T1, PIP4K2A (Homo sapiens, UniProt P48426)
T1 sequence (P48426 1-406): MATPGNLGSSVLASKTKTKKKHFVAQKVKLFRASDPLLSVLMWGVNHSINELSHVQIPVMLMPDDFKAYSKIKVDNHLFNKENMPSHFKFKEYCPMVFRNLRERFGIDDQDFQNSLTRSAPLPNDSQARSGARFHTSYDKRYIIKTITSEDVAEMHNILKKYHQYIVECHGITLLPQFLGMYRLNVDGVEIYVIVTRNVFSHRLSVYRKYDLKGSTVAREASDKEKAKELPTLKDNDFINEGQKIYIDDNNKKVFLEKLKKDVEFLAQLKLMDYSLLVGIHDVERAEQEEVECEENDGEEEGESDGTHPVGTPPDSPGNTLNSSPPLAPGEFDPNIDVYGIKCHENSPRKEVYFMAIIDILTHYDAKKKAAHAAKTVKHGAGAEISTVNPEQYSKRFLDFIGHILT

PRKD2 = molecular target: T2, PRKD2 (Homo sapiens, UniProt Q9BZL6)
T2 sequence (Q9BZL6 1-878): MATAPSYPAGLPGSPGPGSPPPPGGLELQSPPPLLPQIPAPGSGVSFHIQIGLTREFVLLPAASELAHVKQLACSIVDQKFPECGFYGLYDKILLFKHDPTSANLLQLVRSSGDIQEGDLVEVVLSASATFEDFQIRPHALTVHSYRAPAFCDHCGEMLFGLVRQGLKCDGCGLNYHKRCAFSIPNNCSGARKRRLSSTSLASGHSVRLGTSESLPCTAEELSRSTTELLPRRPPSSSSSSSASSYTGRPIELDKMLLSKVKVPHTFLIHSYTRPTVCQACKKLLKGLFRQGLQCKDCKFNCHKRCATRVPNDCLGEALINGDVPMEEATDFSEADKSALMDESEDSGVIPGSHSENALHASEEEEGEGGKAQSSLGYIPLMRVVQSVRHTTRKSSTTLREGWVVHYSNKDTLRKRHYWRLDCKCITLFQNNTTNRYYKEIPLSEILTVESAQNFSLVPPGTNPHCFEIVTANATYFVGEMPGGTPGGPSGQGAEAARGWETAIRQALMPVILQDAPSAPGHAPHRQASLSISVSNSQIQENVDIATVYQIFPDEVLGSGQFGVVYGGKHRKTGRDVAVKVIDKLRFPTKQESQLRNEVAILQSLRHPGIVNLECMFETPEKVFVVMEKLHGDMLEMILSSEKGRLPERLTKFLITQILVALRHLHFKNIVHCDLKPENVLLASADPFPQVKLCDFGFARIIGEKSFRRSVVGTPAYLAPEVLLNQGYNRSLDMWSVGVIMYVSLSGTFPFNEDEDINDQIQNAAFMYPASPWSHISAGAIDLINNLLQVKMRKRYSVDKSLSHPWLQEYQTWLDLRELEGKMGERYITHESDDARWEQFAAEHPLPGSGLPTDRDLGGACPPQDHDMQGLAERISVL

TP53RK = molecular target: T3, TP53RK (Homo sapiens, UniProt Q96S44)
T3 sequence (Q96S44 1-253): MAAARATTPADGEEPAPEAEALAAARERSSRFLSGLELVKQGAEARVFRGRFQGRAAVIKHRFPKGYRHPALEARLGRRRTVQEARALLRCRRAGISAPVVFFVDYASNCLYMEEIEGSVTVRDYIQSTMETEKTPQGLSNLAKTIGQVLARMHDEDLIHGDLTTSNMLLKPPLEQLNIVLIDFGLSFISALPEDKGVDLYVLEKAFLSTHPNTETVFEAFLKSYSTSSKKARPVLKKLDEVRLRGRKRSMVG

Chain of PIM2 (Q9P1W9 whole entry): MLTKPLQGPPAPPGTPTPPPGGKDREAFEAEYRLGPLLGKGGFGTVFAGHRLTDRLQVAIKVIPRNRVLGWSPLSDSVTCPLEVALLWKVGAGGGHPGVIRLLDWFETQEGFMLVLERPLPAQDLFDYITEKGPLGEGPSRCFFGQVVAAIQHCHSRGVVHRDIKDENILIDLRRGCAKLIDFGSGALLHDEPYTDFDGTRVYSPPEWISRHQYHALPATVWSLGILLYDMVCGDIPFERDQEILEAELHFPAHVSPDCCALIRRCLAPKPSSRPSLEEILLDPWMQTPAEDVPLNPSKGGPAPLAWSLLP
Chain of CDC2 (P06493 whole entry): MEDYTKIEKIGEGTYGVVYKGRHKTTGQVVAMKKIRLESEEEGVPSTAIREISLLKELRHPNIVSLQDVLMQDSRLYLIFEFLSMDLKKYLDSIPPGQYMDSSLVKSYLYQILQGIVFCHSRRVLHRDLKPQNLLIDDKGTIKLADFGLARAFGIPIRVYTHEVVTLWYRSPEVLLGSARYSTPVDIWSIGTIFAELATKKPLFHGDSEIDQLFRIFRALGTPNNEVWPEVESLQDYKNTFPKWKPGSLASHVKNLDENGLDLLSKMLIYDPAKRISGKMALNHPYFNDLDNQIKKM
Chain of GSK3B (P49841 whole entry): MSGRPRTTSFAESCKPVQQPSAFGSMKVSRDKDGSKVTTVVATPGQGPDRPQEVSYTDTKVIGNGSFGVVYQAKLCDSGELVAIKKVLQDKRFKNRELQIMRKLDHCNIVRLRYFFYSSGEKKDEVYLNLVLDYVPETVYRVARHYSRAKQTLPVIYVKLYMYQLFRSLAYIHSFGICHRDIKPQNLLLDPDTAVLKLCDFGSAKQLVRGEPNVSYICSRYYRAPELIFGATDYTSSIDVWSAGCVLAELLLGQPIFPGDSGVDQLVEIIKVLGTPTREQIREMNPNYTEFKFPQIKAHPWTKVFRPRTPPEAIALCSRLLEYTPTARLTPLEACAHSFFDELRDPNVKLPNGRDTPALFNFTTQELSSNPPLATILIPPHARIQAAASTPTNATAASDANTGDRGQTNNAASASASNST
Chain of BUB1 (O43683 whole entry): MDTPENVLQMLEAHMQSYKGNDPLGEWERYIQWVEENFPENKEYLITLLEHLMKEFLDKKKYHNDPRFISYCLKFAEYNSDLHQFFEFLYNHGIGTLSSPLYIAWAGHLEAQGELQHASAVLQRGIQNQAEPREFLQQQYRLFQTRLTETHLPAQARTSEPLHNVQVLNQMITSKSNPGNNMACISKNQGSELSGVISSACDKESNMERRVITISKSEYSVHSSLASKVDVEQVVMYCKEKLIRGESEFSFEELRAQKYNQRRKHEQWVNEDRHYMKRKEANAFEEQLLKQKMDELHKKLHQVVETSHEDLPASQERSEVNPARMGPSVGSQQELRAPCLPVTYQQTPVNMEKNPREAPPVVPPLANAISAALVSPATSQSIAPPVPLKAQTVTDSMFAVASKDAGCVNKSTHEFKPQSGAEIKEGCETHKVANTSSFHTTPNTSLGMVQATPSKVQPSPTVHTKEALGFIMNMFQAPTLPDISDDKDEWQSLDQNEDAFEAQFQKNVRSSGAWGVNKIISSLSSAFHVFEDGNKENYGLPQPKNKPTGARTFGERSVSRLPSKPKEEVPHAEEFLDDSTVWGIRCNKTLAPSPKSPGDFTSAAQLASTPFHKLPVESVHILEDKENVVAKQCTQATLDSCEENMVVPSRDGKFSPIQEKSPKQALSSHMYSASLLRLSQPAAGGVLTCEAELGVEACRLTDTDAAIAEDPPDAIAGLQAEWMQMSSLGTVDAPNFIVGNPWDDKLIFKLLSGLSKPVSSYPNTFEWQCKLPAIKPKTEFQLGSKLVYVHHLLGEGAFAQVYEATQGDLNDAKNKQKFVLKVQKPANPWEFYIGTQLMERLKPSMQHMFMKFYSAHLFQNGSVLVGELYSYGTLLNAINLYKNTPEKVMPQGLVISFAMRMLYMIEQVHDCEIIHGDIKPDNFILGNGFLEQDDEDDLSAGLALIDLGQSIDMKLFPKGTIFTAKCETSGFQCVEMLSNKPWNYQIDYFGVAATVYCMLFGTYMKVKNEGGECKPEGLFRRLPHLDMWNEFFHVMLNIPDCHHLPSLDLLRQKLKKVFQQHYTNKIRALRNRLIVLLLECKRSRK
Chain of CSNK2A1 (P68400 whole entry): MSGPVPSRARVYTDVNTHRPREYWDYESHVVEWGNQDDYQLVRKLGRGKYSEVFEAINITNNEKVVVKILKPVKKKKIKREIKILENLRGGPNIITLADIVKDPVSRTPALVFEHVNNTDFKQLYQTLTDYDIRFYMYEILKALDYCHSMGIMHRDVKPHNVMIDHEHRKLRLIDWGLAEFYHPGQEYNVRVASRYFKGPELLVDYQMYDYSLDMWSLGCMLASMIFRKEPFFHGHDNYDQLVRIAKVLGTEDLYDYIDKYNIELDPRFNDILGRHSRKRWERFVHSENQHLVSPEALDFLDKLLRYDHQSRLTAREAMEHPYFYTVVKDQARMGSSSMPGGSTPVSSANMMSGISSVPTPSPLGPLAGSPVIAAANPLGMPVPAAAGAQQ
Chain of CAMK2G (Q13555 whole entry): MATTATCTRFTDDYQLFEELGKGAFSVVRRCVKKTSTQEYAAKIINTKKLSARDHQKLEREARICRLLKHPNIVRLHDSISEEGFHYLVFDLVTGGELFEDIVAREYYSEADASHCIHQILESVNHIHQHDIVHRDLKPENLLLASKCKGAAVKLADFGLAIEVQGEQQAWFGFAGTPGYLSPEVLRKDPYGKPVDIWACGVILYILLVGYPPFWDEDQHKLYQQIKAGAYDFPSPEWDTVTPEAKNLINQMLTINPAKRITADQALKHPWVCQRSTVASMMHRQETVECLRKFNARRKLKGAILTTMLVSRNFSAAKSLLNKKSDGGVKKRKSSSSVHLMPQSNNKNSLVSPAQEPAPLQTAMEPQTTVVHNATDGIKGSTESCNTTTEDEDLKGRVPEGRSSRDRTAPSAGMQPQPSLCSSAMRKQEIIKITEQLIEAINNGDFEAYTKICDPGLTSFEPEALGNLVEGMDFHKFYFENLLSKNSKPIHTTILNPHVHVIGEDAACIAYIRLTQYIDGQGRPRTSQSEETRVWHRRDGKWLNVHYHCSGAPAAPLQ
Chain of CRKRS (Q9NYV4 whole entry): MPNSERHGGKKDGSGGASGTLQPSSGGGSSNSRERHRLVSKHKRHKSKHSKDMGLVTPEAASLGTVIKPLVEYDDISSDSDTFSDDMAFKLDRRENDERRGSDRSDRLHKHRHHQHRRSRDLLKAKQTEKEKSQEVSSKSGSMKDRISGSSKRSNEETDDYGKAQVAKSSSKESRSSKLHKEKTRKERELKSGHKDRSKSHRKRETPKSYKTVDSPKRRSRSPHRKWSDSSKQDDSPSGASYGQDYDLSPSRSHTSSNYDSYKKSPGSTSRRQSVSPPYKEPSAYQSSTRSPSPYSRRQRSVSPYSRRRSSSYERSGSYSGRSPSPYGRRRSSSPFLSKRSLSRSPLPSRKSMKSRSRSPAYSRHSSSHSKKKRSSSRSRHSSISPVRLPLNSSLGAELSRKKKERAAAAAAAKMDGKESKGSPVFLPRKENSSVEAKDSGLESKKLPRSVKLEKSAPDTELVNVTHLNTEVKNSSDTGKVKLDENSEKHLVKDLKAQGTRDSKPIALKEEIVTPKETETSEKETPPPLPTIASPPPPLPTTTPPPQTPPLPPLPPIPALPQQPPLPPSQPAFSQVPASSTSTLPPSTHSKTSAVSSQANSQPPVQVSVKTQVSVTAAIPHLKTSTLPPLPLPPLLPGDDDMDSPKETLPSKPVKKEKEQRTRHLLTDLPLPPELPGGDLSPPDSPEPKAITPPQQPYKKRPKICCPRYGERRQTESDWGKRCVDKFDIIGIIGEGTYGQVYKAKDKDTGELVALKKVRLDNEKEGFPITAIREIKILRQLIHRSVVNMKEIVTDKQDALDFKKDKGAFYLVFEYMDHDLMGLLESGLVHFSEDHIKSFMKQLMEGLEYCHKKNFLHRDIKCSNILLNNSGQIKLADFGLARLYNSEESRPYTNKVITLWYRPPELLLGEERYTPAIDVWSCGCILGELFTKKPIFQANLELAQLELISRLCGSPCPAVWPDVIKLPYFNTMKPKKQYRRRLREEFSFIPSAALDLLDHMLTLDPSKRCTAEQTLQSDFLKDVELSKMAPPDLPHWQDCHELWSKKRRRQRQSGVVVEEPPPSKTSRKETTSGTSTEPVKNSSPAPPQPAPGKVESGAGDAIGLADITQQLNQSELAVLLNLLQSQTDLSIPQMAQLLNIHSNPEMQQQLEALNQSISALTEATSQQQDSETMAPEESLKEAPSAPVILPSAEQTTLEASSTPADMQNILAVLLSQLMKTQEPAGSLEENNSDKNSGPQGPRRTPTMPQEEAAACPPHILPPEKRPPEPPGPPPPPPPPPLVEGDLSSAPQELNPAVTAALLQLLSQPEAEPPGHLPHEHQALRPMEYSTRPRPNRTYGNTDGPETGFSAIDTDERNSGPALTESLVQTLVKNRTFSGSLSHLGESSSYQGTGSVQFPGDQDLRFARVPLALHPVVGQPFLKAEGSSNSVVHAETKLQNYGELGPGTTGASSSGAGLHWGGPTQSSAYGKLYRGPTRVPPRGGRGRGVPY
Chain of MAPK8 (P45983 whole entry): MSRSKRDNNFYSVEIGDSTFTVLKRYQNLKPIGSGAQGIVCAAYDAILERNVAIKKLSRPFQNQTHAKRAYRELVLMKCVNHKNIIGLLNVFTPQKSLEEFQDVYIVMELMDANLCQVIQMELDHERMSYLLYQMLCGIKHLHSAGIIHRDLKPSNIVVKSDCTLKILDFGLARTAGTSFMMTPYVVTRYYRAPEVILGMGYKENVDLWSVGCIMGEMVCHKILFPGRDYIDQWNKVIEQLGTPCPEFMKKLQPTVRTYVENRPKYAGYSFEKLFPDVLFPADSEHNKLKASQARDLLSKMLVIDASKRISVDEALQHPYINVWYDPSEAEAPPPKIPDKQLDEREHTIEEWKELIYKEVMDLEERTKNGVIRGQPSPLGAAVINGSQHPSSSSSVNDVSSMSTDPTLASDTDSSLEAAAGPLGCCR

`CN(C)CC(O)COc1ccc(Nc2ncc([N+](=O)[O-])c(Nc3ccccc3O)n2)cc1.O=C(O)C(F)(F)F` (stereo not drawn) [TCMDC-141399] gave an IC50 (BUB1) of over 20 µM, an IC50 (CAMK2G) of over 20 µM and an IC50 (CDC2) of over 20 µM. For the same compound, the IC50 (CRKRS) was 2.1 µM, the IC50 (CSNK2A1) was 0.092 µM and the IC50 (GSK3B) was 8.4 µM and 11 µM. For the same compound, the IC50 (MAPK8) was over 20 µM, the IC50 (PIM2) was over 20 µM and the IC50 (PIP4K2A) was 1.2 µM and 0.95 µM. It also gave an IC50 (PRKD2) of 1.9 µM and an IC50 (TP53RK) of over 20 µM.
In the case of `Cl.NCC1(c2nc(-c3ccc(Cl)c(O)c3)c(-c3ccncc3)[nH]2)CCCCC1` [TCMDC-141154], the IC50 (BUB1) is reported as 0.24 µM and 0.17 µM, the IC50 (CAMK2G) is reported as over 20 µM and the IC50 (CDC2) is reported as over 20 µM. It also gave an IC50 (CRKRS) of over 20 µM, an IC50 (CSNK2A1) of over 20 µM and an IC50 (GSK3B) of 7.7 µM. For the same compound, the IC50 (MAPK8) was over 20 µM, the IC50 (PIM2) was over 20 µM and the IC50 (PIP4K2A) was over 20 µM. For the same compound, the IC50 (PRKD2) was 5.2 µM and 4.3 µM and the IC50 (TP53RK) was over 20 µM.
`CN1CCN(c2ccc(Nc3ncc(C#N)c(Nc4ccccc4C(N)=O)n3)cc2)CC1.Cl` [TCMDC-134116] was tested, and the IC50 (BUB1) was 0.37 µM and 0.32 µM, the IC50 (CAMK2G) was 1.5 µM and 1.3 µM and the IC50 (CDC2) was 1.5 µM. The IC50 (CRKRS) was 0.65 µM, the IC50 (CSNK2A1) was ≤ 0.032 µM and 0.034 µM and the IC50 (GSK3B) was 2.4 µM and 1.5 µM. For the same compound, the IC50 (MAPK8) was 1.5 µM and 5.1 µM, the IC50 (PIM2) was 4.8 µM and the IC50 (PIP4K2A) was 1.1 µM and 1.4 µM. For the same compound, the IC50 (PRKD2) was 0.34 µM and 0.33 µM and the IC50 (TP53RK) was 4 µM.
